From US11136296B2, “Substituted N-arylethyl-2-arylquinoline-4-carboxamides and use thereof” (Bayer Aktiengesellschaft, priority 2017, dated 2021)
pIC50: −log10 of the molar value.

Target: FP receptor (Homo sapiens (Human), UniProt P43088)
Assay: In vitro test of inhibition of human FP receptor activity (PGF2α-induced calcium flux in FP-expressing CHEM1 cells)
Type: cell-based
Details: PGF2α-induced (2 nM) calcium flux in FP-expressing CHEM1 cells; some as mean values from multiple determinations
From the text: Table 1 below lists the IC50 values from this assay for individual working examples of the invention (some as mean values from multiple independent individual determinations): […]

FP receptor, sequence (P43088 whole entry): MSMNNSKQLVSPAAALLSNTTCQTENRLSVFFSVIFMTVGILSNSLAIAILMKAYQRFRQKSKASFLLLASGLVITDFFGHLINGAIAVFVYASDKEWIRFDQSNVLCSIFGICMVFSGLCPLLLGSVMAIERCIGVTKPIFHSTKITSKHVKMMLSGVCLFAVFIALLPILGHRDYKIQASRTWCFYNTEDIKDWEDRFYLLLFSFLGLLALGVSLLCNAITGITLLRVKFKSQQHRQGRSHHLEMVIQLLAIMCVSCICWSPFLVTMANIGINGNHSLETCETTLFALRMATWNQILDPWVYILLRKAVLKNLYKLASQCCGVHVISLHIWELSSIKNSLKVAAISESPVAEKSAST

Structure (SMILES) | pIC50
Cc1c(-c2ccccc2)nc2ccc(Br)cc2c1C(=O)NCC(CCC(=O)O)c1ccccc1F (single isomer, unassigned; (-)) [Example 176, (−)-5-{[(6-Bromo-3-methyl-2-phenylquinolin-4-yl)carbonyl]amino}-4-(2-fluorophenyl)pentanoic Acid] | 7.92
Cc1c(-c2ccccc2)nc2ccc(Br)cc2c1C(=O)NCC(CCC(=O)O)c1ccccc1OC(F)F (single isomer, unassigned; (-)) [Example 179, (−)-5-{[(6-Bromo-3-methyl-2-phenylquinolin-4-yl)carbonyl]amino}-4-[2-(difluoromethoxy)phenyl]pentanoic Acid] | 8.39
Cc1c(-c2ccccc2)nc2ccc(Br)cc2c1C(=O)NCC(CCC(=O)O)c1c(F)cccc1F (single isomer, unassigned; (-)) [Example 182, (−)-5-{[(6-Bromo-3-methyl-2-phenylquinolin-4-yl)carbonyl]amino}-4-(2,6-difluorophenyl)pentanoic Acid] | 8.14
Cc1c(-c2ccccc2)nc2ccc(Br)cc2c1C(=O)NCC(CCC(=O)O)c1cccc(F)c1Cl (single isomer, unassigned; (-)) [Example 185, (−)-5-{[(6-Bromo-3-methyl-2-phenylquinolin-4-yl)carbonyl]amino}-4-(2-chloro-3-fluorophenyl)pentanoic Acid] | 8.41
Cc1c(-c2ccccc2)nc2ccc(Br)cc2c1C(=O)NCC(c1ccccc1Cl)N(C)CC(=O)O (single isomer, unassigned; (-)) [Example 188, (−)-N-[2-{[(6-Bromo-3-methyl-2-phenylquinolin-4-yl)carbonyl]amino}-1-(2-chlorophenyl)ethyl]-N-methylglycine] | 7.27
Cc1c(-c2ccccc2)nc2ccc(Br)cc2c1C(=O)NCC(OCC(=O)O)c1ccccc1Cl (single isomer, unassigned; (-)) [Example 193, (−)-[2-{[(6-Bromo-3-methyl-2-phenylquinolin-4-yl)carbonyl]amino}-1-(2-chlorophenyl)ethoxy]acetic Acid] | 6.82
Cc1c(-c2ccccc2)nc2ccc(Br)cc2c1C(=O)NCC(SCC(=O)O)c1ccccc1Cl (single isomer, unassigned; (-)) [Example 196, (−)-{[2-{[(6-Bromo-3-methyl-2-phenylquinolin-4-yl)carbonyl]amino}-1-(2-chlorophenyl)ethyl]sulfanyl}acetic Acid] | 7.92
Cc1c(-c2ccccc2)nc2ccc(Br)cc2c1C(=O)NCC(CCC(=O)O)c1c(Cl)ccc(F)c1F (single isomer, unassigned; (-)) [Example 201, (−)-5-{[(6-Bromo-3-methyl-2-phenylquinolin-4-yl)carbonyl]amino}-4-(6-chloro-2,3-difluorophenyl)pentanoic Acid] | 8.92
Cc1c(-c2ccccc2)nc2ccc(Br)cc2c1C(=O)NCC(CCC(=O)O)c1ccccc1C(F)(F)F (single isomer, unassigned; (-)) [Example 204, (−)-5-{[(6-Bromo-3-methyl-2-phenylquinolin-4-yl)carbonyl]amino}-4-[2-(trifluoromethyl)phenyl]pentanoic Acid] | 8.43
Cc1ccc(F)cc1C(CCC(=O)O)CNC(=O)c1c(C)c(-c2ccccc2)nc2ccc(Br)cc12 (single isomer, unassigned; (-)) [Example 207, (−)-5-{[(6-Bromo-3-methyl-2-phenylquinolin-4-yl)carbonyl]amino}-4-(5-fluoro-2-methylphenyl)pentanoic Acid] | 8.00
Cc1c(-c2ccccc2)nc2ccc(Br)cc2c1C(=O)NCC(CCC(=O)O)c1ccccc1OC(F)(F)F (single isomer, unassigned; (-)) [Example 211, (−)-5-{[(6-Bromo-3-methyl-2-phenylquinolin-4-yl)carbonyl]amino}-4-[2-(trifluoromethoxy)phenyl]pentanoic Acid] | 8.77
O=C(O)CCC(CNC(=O)c1c(Cl)c(-c2ccccc2)nc2ccc(Br)cc12)c1ccccc1Cl (single isomer, unassigned; (-)) [Example 213, (−)-5-{[(6-Bromo-3-chloro-2-phenylquinolin-4-yl)carbonyl]amino}-4-(2-chlorophenyl)pentanoic Acid] | 8.55
O=C(O)CCC(CNC(=O)c1c(Cl)c(-c2ccccc2)nc2ccc(Br)cc12)c1ccccc1C(F)(F)F (single isomer, unassigned; (-)) [Example 216, (−)-5-{[(6-Bromo-3-chloro-2-phenylquinolin-4-yl)carbonyl]amino}-4-[2-(trifluoromethyl)phenyl]pentanoic Acid] | 8.30
C#Cc1ccc2nc(-c3ccccc3)c(C)c(C(=O)NCC(CCC(=O)O)c3ccccc3Cl)c2c1 (single isomer, unassigned; (-)) [Example 219, (−)-4-(2-Chlorophenyl)-5-{[(6-ethynyl-3-methyl-2-phenylquinolin-4-yl)carbonyl]amino}pentanoic Acid] | 8.00
O=C(O)CCC(CNC(=O)c1c(Cl)c(-c2ccccc2)nc2ccc(Br)cc12)c1c(F)ccc(F)c1Cl (single isomer, unassigned; (-)) [Example 222, (−)-5-{[(6-Bromo-3-chloro-2-phenylquinolin-4-yl)carbonyl]amino}-4-(2-chloro-3,6-difluorophenyl)pentanoic Acid] | 9.02
Cc1c(-c2ccccc2)nc2ccc(Br)cc2c1C(=O)NCC(CCC(=O)O)c1c(F)cccc1C(F)(F)F (single isomer, unassigned; (-)) [Example 227, (−)-5-{[(6-Bromo-3-methyl-2-phenylquinolin-4-yl)carbonyl]amino}-4-[2-fluoro-6-(trifluoromethyl)phenyl]pentanoic Acid] | 8.80
Cc1c(-c2ccccc2)nc2ccc(Br)cc2c1C(=O)NCC(CCC(=O)O)c1c(F)c(F)cc(F)c1F (single isomer, unassigned; (-)) [Example 229, (−)-5-{[(6-Bromo-3-methyl-2-phenylquinolin-4-yl)carbonyl]amino}-4-(2,3,5,6-tetrafluorophenyl)pentanoic Acid] | 8.57
Cc1c(-c2ccccc2)nc2ccc(Br)cc2c1C(=O)NCC(CCC(=O)O)c1c(Cl)ccc(Cl)c1Cl (single isomer, unassigned; (-)) [Example 236, (−)-5-{[(6-Bromo-3-methyl-2-phenylquinolin-4-yl)carbonyl]amino}-4-(2,3,6-trichlorophenyl)pentanoic Acid] | 8.70
Cc1c(-c2ccccc2)nc2ccc(Br)cc2c1C(=O)NCC(C)(CCCC(=O)O)c1ccccc1Cl (single isomer, unassigned; (-)) [Example 241, (−)-6-{[(6-Bromo-3-methyl-2-phenylquinolin-4-yl)carbonyl]amino}-5-(2-chlorophenyl)-5-methylhexanoic Acid] | 7.17
Cc1c(-c2ccccc2)nc2ccc(Br)cc2c1C(=O)NCC(C)(CCCC(=O)O)c1ccccc1 (single isomer, unassigned; (-)) [Example 244, (−)-6-{[(6-Bromo-3-methyl-2-phenylquinolin-4-yl)carbonyl]amino}-5-methyl-5-phenylhexanoic Acid] | 7.70
COc1ccccc1C(CNC(=O)c1c(C)c(-c2ccccc2)nc2ccc(Br)cc12)N1CCC(C(=O)O)C1 (stereo not drawn) [Example 246, 1-[2-{[(6-Bromo-3-methyl-2-phenylquinolin-4-yl)carbonyl]amino}-1-(2-methoxyphenyl)ethyl]pyrrolidine-3-carboxylic Acid] | 7.03
COc1ccccc1[C@H](CNC(=O)c1c(C)c(-c2ccccc2)nc2ccc(Br)cc12)N1CCC(C(=O)O)C1 (stereo partly drawn) [compound 247] | 8.14
COc1ccccc1[C@@H](CNC(=O)c1c(C)c(-c2ccccc2)nc2ccc(Br)cc12)N1CCC(C(=O)O)C1 (stereo partly drawn) [compound 248] | 7.89
Cc1c(-c2ccccc2)nc2ccc(Br)cc2c1C(=O)NCC(CCC(=O)O)c1ccccc1F (stereo not drawn) [compound 252] | 7.85
